From patent publication US20110172296A1, “MODULATION OF TRANSFORMING GROWTH FACTOR-BETA 1 EXPRESSION” (priority 2010, published 2011)
Where “and” joins values, the source holds several entries; their conditions need not be identical. Equal values may be shown once. e = 2'-O-(2-methoxyethyl) (MOE); d = 2'-deoxy (DNA)

Legend:
BALB/c mice [1] = assay: Tolerability in BALB/c mice: plasma transaminases ALT and AST (Example 7); conditions: for aspartate transaminase levels: plasma; for increase in ALT/AST: 25 or 50 mg/kg twice a week for four weeks
Procedure: (§1) These gapmer oligonucleotides were designed to target human TGF-beta1 and have varying degrees of mismatch with murine TGF-beta1 sequence, as shown in Table 1. Oligo ID Nos. 413982 and 414040 have greater than 3 mismatches to the murine TGF-beta1 sequence. Oligo ID No. 414035 has 2 mismatches to murine TGF-beta1. Oligo ID No. 414036 has no mismatches to murine TGF-beta1.
(§2) BALB/c mice were injected with 25 mg/kg or 50 mg/kg of Oligo ID Nos. 413982, 414035, 414036, or 414040 twice a week for 4 weeks. A control group of mice was injected with phosphate buffered saline (PBS) twice a week for 4 weeks. Plasma transaminase levels were evaluated bi-weekly.
(§3) To evaluate the impact of TGF-beta1 antisense oligonucleotides on the hepatic function of mice described above, plasma concentrations of transaminases were measured using an automated clinical chemistry analyzer (Hitachi Olympus AU400e, Melville, N.Y.).

human TGF-beta1 mRNA [2] = assay: Antisense inhibition of human TGF-beta1 mRNA in HuVEC cells, single 10 nM dose, Lipofectamine 2000 (Example 2); type: cell-based; conditions: for % inhibition: 10 nM oligonucleotide, HuVEC, relative to untreated control cells, gapmers targeted to SEQ ID NO: 1; for inhibition of a TGF-beta1 mRNA: threshold lists of Oligo IDs, 10 nM
Summary of the method: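 Percent inhibition relative to untreated controls, from qRT-PCR of mRNA corrected for total RNA (RIBOGREEN). Cells were exposed 4 h to 10 nM phosphorothioate 2-13-5 MOE gapmers with Lipofectamine 2000 at 5,000 cells/well. RNA was harvested after roughly 24 h recovery.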

human TGF-beta1 mRNA [3] = assay: Dose-dependent confirmation of antisense inhibition of human TGF-beta1 in HuVEC cells after large-scale synthesis, Lipofectamine 2000, 0.007-15 nM (Example 5); type: cell-based; conditions: for percent inhibition of TGF-beta1: Lipofectamine 2000; for IC50: Lipofectamine 2000, Example 5
Procedure: Cells were plated at a density of 5,000 cells per well and transfected using Lipofectamine™ 2000 reagent with 0.007 nM, 0.021 nM, 0.062 nM, 0.185 nM, 0.556 nM, 1.667 nM, 5 nM, and 15 nM concentrations of antisense oligonucleotide for 4 hours, as specified in Table 5. After a recovery period of approximately 16 hours, RNA was isolated from the cells and TGF-beta1 mRNA levels were measured by quantitative real-time PCR. Human TGF-beta1 primer probe set RTS 2980 was used to measure mRNA levels. TGF-beta1 mRNA levels were adjusted according to total RNA content, as measured by RIBOGREEN®. Results are presented as percent inhibition of TGF-beta1, relative to untreated control cells.

human TGF-beta1 mRNA [4] = assay: Dose-dependent antisense inhibition of human TGF-beta1 in HuVEC cells, Lipofectamine 2000, 0.3292-80 nM, comparison with oligos of U.S. Pat. No. 6,436,909 (Example 4); type: cell-based
Procedure: The dose-dependent antisense inhibition potential of these gapmers was compared with that of Oligo IDs 104992 and 1138498 from U.S. Pat. No. 6,436,909. Cells were plated at a density of 5,000 cells per well and transfected using Lipofectamine™ 2000 reagent with 0.3292 nM, 0.9877 nM, 2.963 nM, 8.8889 nM, 26.6667 nM, and 80 nM concentrations of antisense oligonucleotide for 4 hours, as specified in Table 4. After a recovery period of approximately 16 hours, RNA was isolated from the cells and TGF-beta1 mRNA levels were measured by quantitative real-time PCR. Human TGF-beta1 primer probe set RTS 2980 was used to measure mRNA levels. TGF-beta1 mRNA levels were adjusted according to total RNA content, as measured by RIBOGREEN®. Results are presented as percent inhibition of TGF-beta1, relative to untreated control cells. […] All the antisense oligonucleotides in Table 4 target human TGF-beta1 mRNA (SEQ ID NO: 1).

human TGF-beta1 mRNA [5] = assay: Dose-dependent confirmation of antisense inhibition of human TGF-beta1 in HuVEC cells, electroporation (Example 6); type: cell-based
Procedure: The gapmers from Example 5 (see Table 5) were also tested at various doses in HuVEC cells using electroporation as the transfection reagent. Cells were plated at a density of 20,000 cells per well and transfected using electroporation with 0.15625 nM, 0.3125 nM, 0.625 nM, 1.25 nM, 2.5 nM, 5 nM, 10 nM, and 20 nM concentrations of antisense oligonucleotide for 4 hours, as specified in Table 6. After a recovery period of approximately 16 hours, RNA was isolated from the cells and TGF-beta1 mRNA levels were measured by quantitative real-time PCR. TGF-beta1 mRNA levels were adjusted according to total RNA content, as measured by RIBOGREEN®. Results are presented as percent inhibition of TGF-beta1, relative to untreated control cells.

human TGF-beta1 mRNA [6] = assay: Dose-dependent antisense inhibition of human TGF-beta1 in HuVEC cells, Lipofectamine 2000, 0.9375-30 nM (Example 3); type: cell-based; conditions: Lipofectamine 2000
Procedure: Cells were plated at a density of 5,000 cells per well and transfected using Lipofectamine™ 2000 reagent with 0.9375 nM, 1.875 nM, 3.75 nM, 7.5 nM, 15 nM, and 30 nM concentrations of antisense oligonucleotide for 4 hours, as specified in Table 3. After a recovery period of approximately 16 hours, RNA was isolated from the cells and TGF-beta1 mRNA levels were measured by quantitative real-time PCR. Human TGF-beta1 primer probe set RTS 2980 (forward sequence CTCTCCGACCTGCCACAGA, SEQ ID NO: 160; reverse sequence […], SEQ ID NO: 53; probe sequence CCCTATTCAAGACCACCCACCTTCTGGTX, SEQ ID NO: 161) was used to measure mRNA levels. TGF-beta1 mRNA levels were adjusted according to total RNA content, as measured by RIBOGREEN®. Results are presented as percent inhibition of TGF-beta1, relative to untreated control cells.

BALB/c mice [7] = conditions: mouse, in vivo
Procedure: as §1, §2, §3

Substance: 414035 (antisense GTCCTTAAATACAGCCCCCA; sugars from the 5' end e2 d13 e5, backbone and methylation of C not given here) [compound 414035]
- alanine transaminase levels (BALB/c mice [1]; 25 mg/kg twice a week, Week 2): 56 IU/L
- alanine transaminase levels (BALB/c mice [1]; 25 mg/kg twice a week, Week 4): 45 IU/L
- aspartate transaminase levels (BALB/c mice [1]; 25 mg/kg twice a week, Week 2): 82 IU/L
- aspartate transaminase levels (BALB/c mice [1]; 25 mg/kg twice a week, Week 4): 116 IU/L
- alanine transaminase levels (BALB/c mice [1]; 50 mg/kg twice a week, Week 2): 66 IU/L
- alanine transaminase levels (BALB/c mice [1]; 50 mg/kg twice a week, Week 4): 67 IU/L
- aspartate transaminase levels (BALB/c mice [1]; 50 mg/kg twice a week, Week 2): 123 IU/L
- aspartate transaminase levels (BALB/c mice [1]; 50 mg/kg twice a week, Week 4): 155 IU/L
- increase in ALT/AST (BALB/c mice [1]): < 3 fold
- % inhibition (human TGF-beta1 mRNA [2]): 89%
- inhibition of a TGF-beta1 mRNA (human TGF-beta1 mRNA [2]): 60% and 65% and 70% and 75% and 80% and 85%
- percent inhibition of TGF-beta1 (human TGF-beta1 mRNA [3]; 0.007 nM): 9%
- percent inhibition of TGF-beta1 (human TGF-beta1 mRNA [3]; 0.021 nM): 26%
- percent inhibition of TGF-beta1 (human TGF-beta1 mRNA [3]; 0.062 nM): 45%
- percent inhibition of TGF-beta1 (human TGF-beta1 mRNA [3]; 0.185 nM): 59%
- percent inhibition of TGF-beta1 (human TGF-beta1 mRNA [3]; 0.556 nM): 76%
- percent inhibition of TGF-beta1 (human TGF-beta1 mRNA [3]; 1.667 nM): 84%
- percent inhibition of TGF-beta1 (human TGF-beta1 mRNA [3]; 5 nM): 90%
- percent inhibition of TGF-beta1 (human TGF-beta1 mRNA [3]; 15 nM): 91%
- IC50 (human TGF-beta1 mRNA [3]): 0.13 nM
- percent inhibition of TGF-beta1 (human TGF-beta1 mRNA [4]; 0.3292 nM): 74%
- percent inhibition of TGF-beta1 (human TGF-beta1 mRNA [4]; 0.9877 nM): 84%
- percent inhibition of TGF-beta1 (human TGF-beta1 mRNA [4]; 2.963 nM): 92%
- percent inhibition of TGF-beta1 (human TGF-beta1 mRNA [4]; 8.8889 nM): 94%
- percent inhibition of TGF-beta1 (human TGF-beta1 mRNA [4]; 26.6667 nM): 93%
- percent inhibition of TGF-beta1 (human TGF-beta1 mRNA [4]; 80.0 nM): 93%
- percent inhibition of TGF-beta1 mRNA relative to untreated control cells (human TGF-beta1 mRNA [5]; 0.15625 nM oligonucleotide): 17%
- percent inhibition of TGF-beta1 mRNA relative to untreated control cells (human TGF-beta1 mRNA [5]; 0.3125 nM oligonucleotide): 49%
- percent inhibition of TGF-beta1 mRNA relative to untreated control cells (human TGF-beta1 mRNA [5]; 0.625 nM oligonucleotide): 63%
- percent inhibition of TGF-beta1 mRNA relative to untreated control cells (human TGF-beta1 mRNA [5]; 1.25 nM oligonucleotide): 77%
- percent inhibition of TGF-beta1 mRNA relative to untreated control cells (human TGF-beta1 mRNA [5]; 2.5 nM oligonucleotide): 89%
- percent inhibition of TGF-beta1 mRNA relative to untreated control cells (human TGF-beta1 mRNA [5]; 5.00 nM oligonucleotide): 94%
- percent inhibition of TGF-beta1 mRNA relative to untreated control cells (human TGF-beta1 mRNA [5]; 10.00 nM oligonucleotide): 94%
- percent inhibition of TGF-beta1 mRNA relative to untreated control cells (human TGF-beta1 mRNA [5]; 20 nM oligonucleotide): 94%
- percent inhibition of TGF-beta1 (human TGF-beta1 mRNA [6]; 0.9375 nM): 64%
- percent inhibition of TGF-beta1 (human TGF-beta1 mRNA [6]; 1.875 nM): 75%
- percent inhibition of TGF-beta1 (human TGF-beta1 mRNA [6]; 3.75 nM): 88%
- percent inhibition of TGF-beta1 (human TGF-beta1 mRNA [6]; 7.5 nM): 94%
- percent inhibition of TGF-beta1 (human TGF-beta1 mRNA [6]; 15 nM): 95%
- percent inhibition of TGF-beta1 (human TGF-beta1 mRNA [6]; 30 nM): 94%
- tolerability compared to Oligo ID 105204 (BALB/c mice [7]): improved tolerability

Substance: 413982 (antisense GCCTCCGGCTCCCAGCGGCA; sugars from the 5' end e2 d13 e5, backbone and methylation of C not given here) [compound 413982]
- alanine transaminase levels (BALB/c mice [1]; 25 mg/kg twice a week, Week 2): 59 IU/L
- alanine transaminase levels (BALB/c mice [1]; 25 mg/kg twice a week, Week 4): 140 IU/L
- aspartate transaminase levels (BALB/c mice [1]; 25 mg/kg twice a week, Week 2): 74 IU/L
- aspartate transaminase levels (BALB/c mice [1]; 25 mg/kg twice a week, Week 4): 161 IU/L
- alanine transaminase levels (BALB/c mice [1]; 50 mg/kg twice a week, Week 2): 77 IU/L
- alanine transaminase levels (BALB/c mice [1]; 50 mg/kg twice a week, Week 4): 462 IU/L
- aspartate transaminase levels (BALB/c mice [1]; 50 mg/kg twice a week, Week 2): 92 IU/L
- aspartate transaminase levels (BALB/c mice [1]; 50 mg/kg twice a week, Week 4): 460 IU/L
- increase in ALT/AST (BALB/c mice [1]): < 16 fold
- % inhibition (human TGF-beta1 mRNA [2]): 88%
- inhibition of a TGF-beta1 mRNA (human TGF-beta1 mRNA [2]): 60% and 65% and 70% and 75% and 80% and 85%
- percent inhibition of TGF-beta1 (human TGF-beta1 mRNA [3]; 0.007 nM): 0%
- percent inhibition of TGF-beta1 (human TGF-beta1 mRNA [3]; 0.021 nM): 14%
- percent inhibition of TGF-beta1 (human TGF-beta1 mRNA [3]; 0.062 nM): 31%
- percent inhibition of TGF-beta1 (human TGF-beta1 mRNA [3]; 0.185 nM): 56%
- percent inhibition of TGF-beta1 (human TGF-beta1 mRNA [3]; 0.556 nM): 71%
- percent inhibition of TGF-beta1 (human TGF-beta1 mRNA [3]; 1.667 nM): 79%
- percent inhibition of TGF-beta1 (human TGF-beta1 mRNA [3]; 5 nM): 89%
- percent inhibition of TGF-beta1 (human TGF-beta1 mRNA [3]; 15 nM): 92%
- IC50 (human TGF-beta1 mRNA [3]): 0.24 nM
- percent inhibition of TGF-beta1 (human TGF-beta1 mRNA [4]; 0.3292 nM): 76%
- percent inhibition of TGF-beta1 (human TGF-beta1 mRNA [4]; 0.9877 nM): 87%
- percent inhibition of TGF-beta1 (human TGF-beta1 mRNA [4]; 2.963 nM): 91%
- percent inhibition of TGF-beta1 (human TGF-beta1 mRNA [4]; 8.8889 nM): 95%
- percent inhibition of TGF-beta1 (human TGF-beta1 mRNA [4]; 26.6667 nM): 95%
- percent inhibition of TGF-beta1 (human TGF-beta1 mRNA [4]; 80.0 nM): 93%
- percent inhibition of TGF-beta1 mRNA relative to untreated control cells (human TGF-beta1 mRNA [5]; 0.15625 nM oligonucleotide): 26%
- percent inhibition of TGF-beta1 mRNA relative to untreated control cells (human TGF-beta1 mRNA [5]; 0.3125 nM oligonucleotide): 32%
- percent inhibition of TGF-beta1 mRNA relative to untreated control cells (human TGF-beta1 mRNA [5]; 0.625 nM oligonucleotide): 57%
- percent inhibition of TGF-beta1 mRNA relative to untreated control cells (human TGF-beta1 mRNA [5]; 1.25 nM oligonucleotide): 79%
- percent inhibition of TGF-beta1 mRNA relative to untreated control cells (human TGF-beta1 mRNA [5]; 2.5 nM oligonucleotide): 85%
- percent inhibition of TGF-beta1 mRNA relative to untreated control cells (human TGF-beta1 mRNA [5]; 5.00 nM oligonucleotide): 89%
- percent inhibition of TGF-beta1 mRNA relative to untreated control cells (human TGF-beta1 mRNA [5]; 10.00 nM oligonucleotide): 93%
- percent inhibition of TGF-beta1 mRNA relative to untreated control cells (human TGF-beta1 mRNA [5]; 20 nM oligonucleotide): 96%
- percent inhibition of TGF-beta1 (human TGF-beta1 mRNA [6]; 0.9375 nM): 56%
- percent inhibition of TGF-beta1 (human TGF-beta1 mRNA [6]; 1.875 nM): 77%
- percent inhibition of TGF-beta1 (human TGF-beta1 mRNA [6]; 3.75 nM): 88%
- percent inhibition of TGF-beta1 (human TGF-beta1 mRNA [6]; 7.5 nM): 95%
- percent inhibition of TGF-beta1 (human TGF-beta1 mRNA [6]; 15 nM): 96%
- percent inhibition of TGF-beta1 (human TGF-beta1 mRNA [6]; 30 nM): 97%
- tolerability compared to Oligo ID 105204 (BALB/c mice [7]): improved tolerability
